Experiments:
Type in all cases: physicochemical
[1] = EPR measurement of oxygen sensitivity (EPR line widening after flushing with oxygen); conditions: for widening of the EPR line after the solution is flushed with oxygen: in toluene, reversible
[2] = Electron spin relaxation times by pulsed spin-echo EPR (X-band) and CW EPR line widths (L-band) in liquid solution; conditions: pulsed spin-echo EPR in X-band (9.5 GHz), CW EPR line widths in L-band (1.1 GHz)
Excerpt: The substance N@C63(COOH)6 (III) according to the invention has long spin-relaxation times of the unpaired electron. It was possible to measure very long electronic relaxation times T1e≅150 μs and T2e≅22 μs in liquid solution, which are longer by at least one order of magnitude than that of the […], (see FIG. 4) with pulsed spin-echo EPR measurements in X-band (9.5 GHz EPR larmor frequency) and from CW EPR line widths in the L-band (1.1 GHz of EPR larmor frequency). From [ii] Table 3, page 8, in isotonic NaCl solution at 37° C.: “predeuterated trityl”: T1e≅13 μs, T2e≅8 μs; “deuterated hydroxy trityl”: T1e≅11 μs, T2e≅8 μs, “symmetrical trityl”: T1e≅9 μs, T2e≅9 μs.

[3] = Relaxometric measurement of proton relaxivity; conditions: aqueous solution, spin concentration 6 μm, 37° C., about 15 mT (600 kHz)
Procedure: Substance (III) has a relaxivity r1≅47 mM^−1s^−1 (compared to the trityl derivatives with relaxivity values of between 0.14 mM^−1s^−1 and 0.44 mM^−1s^−1 [ii], and [iii]) in aqueous solution with a spin concentration of 6 μm at a solvent temperature of 37° C. This unexpectedly high value is present at a magnetic field strength of about 15 mT, which corresponds to a radiofrequency of 600 kHz and thus to the conditions of very low magnetic field strength that are necessary for OMRI.

Row | oxygen-sensitivity [1] | widening of the EPR line after the solution is flushed with oxygen [1] | electronic relaxation time T1e [2] [μs] | electronic relaxation time T2e [2] [μs] | relaxivity r1 [3] [mM⁻¹ s⁻¹] | Substance
1 | low | does not occur | – | – | – | N@C60 [I]
2 | – | – | ~150 | ~22 | ~47 | N@C63 (COONa)6 [III]
3 | elevated | 20 × | – | – | – | P@C60 [IX]
